# Experimental data: patent US20100113484A1, “TREATING AGENT OF UROPATHY” (ASKA PHARMACEUTICAL CO., LTD., priority 2006, published 2010)
# Columns and labels:
# [1] = target: T1, human recombinant PDE9 protein (Homo sapiens, UniProt O76083); assay: Measurement of PDE9-inhibiting activity ([3H]-cGMP hydrolysis); format: biochemical; details: Tables A and C; read-out: Inhibiting Activity (IC50 value) PDE9
# T1 construct: made in house; host or cells: COS-1 cells, transient transfection with pcDNA 3.1 (+); supernatant of the homogenate, not purified
# Method: Based on the base sequence of hsPDE9A1 registered with GenBank database (accession No.: AF048837), hsPDE9A1 fragment was amplified by polymerase chain reaction under the following conditions, using the following sequence (Amasham Pharmacia Biotech) as the primer and Human Prostate […] cDNA library (CLONTECH) as the template DNA, with Pfu Turbo DNA polymerase ([…]):
# PCR condition: [95° C., 5 min]×1 cycle, [(95° C., 1 min), (58° C., 2 min), (72° C., 3 min)]×25 cycles, [72° C., 10 min]×1 cycle
# Thus obtained hsPDE9A1 fragment was given a restricted enzymatic treatment with NheI and NotI, and thereafter inserted into pcDNA 3.1 (+) expression vector (Invitrogen) to let it serve as a human PDE9 expression vector.
# (§1) Human PDE9 expression vector-transformed Escherichia coli was mass incubated to produce a large amount of human PDE9 expression vector, which was transiently transfected into COS-1 cells, with LIPOFECTAMINE 2000 Reagent (GIBCO). The cells were homogenized in ice-cooled buffer A (40 mmol/L Tris-HCl, pH7.5, 15 mmol/L benzamidine, 15 mmol/L 2-mercaptoethanol, 1 μg/mL Pepstatin A, 1 μg/mL Leupeptin, 5 mmol/L EDTA) and centrifuged at 4° C., 14,000×g for 10 minutes. The supernatant was isolated to provide human recombinant PDE9 protein solution.
# This mixed solution was incubated at 30° C. for 30 minutes and the enzymatic reaction of PDE9 was terminated by heating the system in boiling water for 90 seconds. Returning the system to room temperature, 50 μL of Snake venom (SIGMA: 1 mg/mL) was added, followed by 10 minutes' incubation at 30° C., to convert the [^3H]-5′-GMP produced in the previous reaction to [^3H]-guanosine. […] Thereafter [^3H]-guanosine was eluted with 3 mL of 3 mol/L aqueous ammonia and its radiation activity was measured with liquid scintillation counter.
# PDE9 inhibition of the tested compound can be calculated by the following formula: […]
# From the percent inhibition at various concentration levels of each tested compound, its IC50 value against PDE9 can be determined.
# [2] = target: T2, human recombinant PDE5 protein (Homo sapiens, UniProt O76074); assay: Measurement of PDE5-inhibiting activity; format: biochemical; details: Tables A and C; read-out: Inhibiting Activity (IC50 value) PDE5
# T2 construct: made in house; host or cells: COS-1 cells, transient transfection with pcDNA 3.1 (+); supernatant of the homogenate, not purified
# Method: PCR condition: [94° C., 2 min]×1 cycle, [(94° C., 30 sec), (65° C., 30 sec), (68° C., 3 min)]×25 cycles, [68° C., 6 min]×1 cycle
# Thus obtained hsPDE5A1 fragment was given a restricted enzymatic treatment with XBaI and EcoRI, and thereafter inserted into pcDNA 3.1 (+) expression vector (Invitrogen) to let it serve as a human PDE5 expression vector.
# as §1, with “PDE5” for “PDE9”, “A” for “A (40 mmol/L Tris-HCl, pH7.5, 15 mmol/L benzamidine, 15 mmol/L 2-mercaptoethanol, 1 μg/mL Pepstatin A, 1 μg/mL Leupeptin, 5 mmol/L EDTA)”
# [3] = system: partial urethra obstruction model in guinea pigs; assay: Dysuria pathological model: partial urethra obstruction model, cystometry; format: in vivo, Hartley female guinea pigs; details: guinea pig, i.v.
# Method: Three-four weeks old Hartley female guinea pigs (Japan SLC, Inc.) were given celiotomy under anesthesia with pentobarbital (30 mg/kg i.p.) and in their urethra to the peripheral side by 1-2 mm from the bladder neck, each a polyethylene tube of 1.4 mm in width and 2.0 mm in inner diameter was placed. After closing the wound, the guinea pigs were bred for at least 3 weeks to produce partial urethra obstruction model in guinea pigs in which occurrence of intravesical pressure rise not accompanied by micturition (uninhibited contraction) and residual urine were observed.
# The model was catheterized under anesthesia with urethane (1 g/kg i.p.) at the apex of urinary bladder and right jugular vein for cystometrography and intravenous administration, respectively. The other end of the bladder catheter was connected to a pressure transducer and infusion pump via a three way stop-cock, and physiological saline was continuously infused into the bladder through the infusion pump at a rate of 0.4 mL/min to induce micturition reflex. Immediately after the micturition reflex was induced, infusion of physiological saline into the bladder was stopped. The intravesical pressure at the time the micturition reflex was induced was measured with the pressure transducer, and the obtained cystometrogram was recorded with pen recorder. The urine voided was collected with disposable type weighing dish and its weight was measured. Further the physiological saline remained in the bladder was sucked with syringe via the bladder catheter and the residual urine volume was measured. The operations of suspending the infusion of physiological saline upon induction of micturition reflex, and about 1 minute thereafter resuming the infusion of physiological saline to induce micturition reflex were repeated plural times (generally 4 times) to stabilize the micturition reflex.
# After stabilizing the micturition reflex, a compound solution (prepared by dissolving the compound or methanesulfonic acid salt thereof in DMSO and diluting it with physiological saline or distilled water) or physiological saline was administered into the vein at a volume of 10 mL/kg over 4 minutes, and simultaneously the above-described micturition reflex operations were repeated until 30 minutes passed after initiation of the administration, while measuring the intravesical pressure and the volumes of micturition and residual urine. Also the frequency of uninhibited contraction occurrence during the above-described operations was recorded.
# T1 sequence (O76083 whole entry): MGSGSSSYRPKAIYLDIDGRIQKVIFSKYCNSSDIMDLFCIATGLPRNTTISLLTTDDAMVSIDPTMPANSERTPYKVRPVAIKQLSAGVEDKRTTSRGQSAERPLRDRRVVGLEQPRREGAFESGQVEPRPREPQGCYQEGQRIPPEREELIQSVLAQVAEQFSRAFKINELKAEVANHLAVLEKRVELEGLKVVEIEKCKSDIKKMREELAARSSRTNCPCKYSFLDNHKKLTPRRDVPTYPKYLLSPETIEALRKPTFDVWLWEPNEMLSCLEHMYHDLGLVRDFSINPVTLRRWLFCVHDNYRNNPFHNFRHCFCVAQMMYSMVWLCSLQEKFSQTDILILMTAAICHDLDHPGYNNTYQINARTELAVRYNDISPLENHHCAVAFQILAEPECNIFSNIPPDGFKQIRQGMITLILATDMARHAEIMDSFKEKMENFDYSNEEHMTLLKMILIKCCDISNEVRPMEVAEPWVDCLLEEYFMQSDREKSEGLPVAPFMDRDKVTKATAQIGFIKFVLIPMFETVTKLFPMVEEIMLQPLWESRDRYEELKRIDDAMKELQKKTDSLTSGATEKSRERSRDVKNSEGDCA
Compound,IC50 [1],IC50 [2],Frequency of occurrence of uninhibited contraction after administration ([3]; 0.3 mg/kg),Frequency of occurrence of uninhibited contraction volume change ([3]; 0.3 mg/kg),Residual urine volume after administration ([3]; 0.3 mg/kg),Residual urine volume volume change ([3]; 0.3 mg/kg),Frequency of occurrence of uninhibited contraction after administration ([3]; 3 mg/kg),Frequency of occurrence of uninhibited contraction volume change ([3]; 3 mg/kg),Residual urine volume after administration ([3]; 3 mg/kg),Residual urine volume volume change ([3]; 3 mg/kg),Frequency of occurrence of uninhibited contraction after administration ([3]; 10 mg/kg),Frequency of occurrence of uninhibited contraction volume change ([3]; 10 mg/kg),Residual urine volume after administration ([3]; 10 mg/kg),Residual urine volume volume change ([3]; 10 mg/kg),Frequency of occurrence of uninhibited contraction after administration ([3]; 1 mg/kg),Frequency of occurrence of uninhibited contraction volume change ([3]; 1 mg/kg),Residual urine volume after administration ([3]; 1 mg/kg),Residual urine volume volume change ([3]; 1 mg/kg)
"Cc1c(C(=O)O)sc2nc(Cc3cccc(Cl)c3)[nH]c(=O)c12 [A-4, 2-(3-Chlorobenzyl)-5-methyl-4-oxo-3,4-dihydrothieno[2,3-d]-pyrimidine-6-carboxylic acid]",30 nM,6770 nM,0.80 times/min,−0.36 times/min,1.08 mL,+0.13 mL,0.49 times/min,−0.67 times/min,1.11 mL,+0.16 mL,0.60 times/min,−0.56 times/min,0.95 mL,0.00 mL,–,–,–,–
"Cc1c(C(=O)O)sc2nc(Cc3ccc(Cl)c(Cl)c3)[nH]c(=O)c12 [A-7, 2-(3,4-Dichlorobenzyl)-5-methyl-4-oxo-3,4-dihydrothieno-[2,3-d]pyrimidine-6-carboxylic acid]",38 nM,915 nM,–,–,–,–,0.77 times/min,−0.39 times/min,1.03 mL,-0.30 mL,0.64 times/min,−0.47 times/min,0.64 mL,-0.42 mL,0.79 times/min,−0.17 times/min,0.86 mL,+0.04 mL
"O=C(O)c1cc2c(=O)[nH]c(CC3=CCCC3)nc2s1 [A-21, 2-(Cyclopent-1-enylmethyl)-4-oxo-3,4-dihydrothieno[2,3-d]-pyrimidine-6-carboxylic acid]",22 nM,12100 nM,0.55 times/min,−0.53 times/min,1.02 mL,-0.52 mL,0.78 times/min,−0.66 times/min,0.88 mL,-0.49 mL,0.83 times/min,−0.74 times/min,0.62 mL,-1.06 mL,–,–,–,–
"Cc1c(C(=O)O)sc2nc(Cc3cccc(Cl)c3)[nH]c(=S)c12 [A-26, 2-(3-Chlorobenzyl)-5-methyl-4-thioxo-3,4-dihydrothieno-[2,3-d]pyrimidine-6-carboxylic acid]",5 nM,1110 nM,1.02 times/min,−0.10 times/min,0.91 mL,-0.11 mL,0.76 times/min,−0.36 times/min,0.27 mL,-0.75 mL,0.59 times/min,−0.53 times/min,0.48 mL,-0.54 mL,–,–,–,–
